ChEMBL document CHEMBL1155523, “Synthesis and biological activity of alpha-L-fucosyl ceramides, analogues of the potent agonist, alpha-D-galactosyl ceramide KRN7000” (2010)

These molecules were tested on iNKT (assay: Effect on immune response in human iNKT cells stimulated by antigen-presenting CD1d assessed as cellular expansion at 250 nM after 8 days by FACSCalibur flow cytometry relative to control).
Type: functional
CCCCCCCCCCCCCCCCCCCCCCCCCC(=O)N[C@@H](CO[C@@H]1O[C@@H](C)[C@@H](O)[C@H](O)[C@@H]1O)[C@H](O)[C@H](O)CCCCCCCCCCCCCC was tested, and the Activity was 12%. With CCCCC/C=C\C/C=C\CCCCCCCCCC(=O)N[C@@H](CO[C@@H]1O[C@@H](C)[C@@H](O)[C@H](O)[C@@H]1O)[C@H](O)[C@H](O)CCCCCCCCCCCCCC the Activity was 0.56%. For CCCCCCCCCCCCCCCCC(O)C(=O)N[C@@H](CO[C@@H]1O[C@@H](C)[C@@H](O)[C@H](O)[C@@H]1O)[C@H](O)[C@H](O)CCCCCCCCCCCCCC (stereo not given in full), the Activity was 2.9%. Work on CCCCCCCCCCCCCCCCCCCCCCCC(=O)N[C@@H](CO[C@@H]1O[C@@H](C)[C@@H](O)[C@H](O)[C@@H]1O)[C@H](O)[C@H](O)CCCCCCCCCCCCCC yielded an Activity of 1.1%. For CCCCCCCCCCCCCCCCCCCCCCCCCC(=O)N[C@@H](CO[C@H]1O[C@H](CO)[C@H](O)[C@H](O)[C@H]1O)[C@H](O)[C@H](O)CCCCCCCCCCCCCC [RGI-7000], the Activity was 26%.
